Assay results published in patent publication US20020031795A1, “Nitrocoumarins for detecting all micro-organisms” (priority 1998, published 2002).

Tests used:
Assay in all cases: Fluorescence after 24 hours, serial dilutions in Trypticase Soy broth
Assay type in all cases: cell-based
[1] = tested on: Listeria ivanovii (wild strain)
Description: (§1) This experiment was performed to test 7-nitrocoumarin-3-carboxylic acid on sixteen (16) different types of microorganism, including one yeast species.
(§2) A mass of 10 mg of the indicator was dissolved in 4 ml of hot, distilled water and this solution was then added to 96 ml of Trypticase Soy broth. The resultant mixture was sterile-filtered.
(§3) All the microorganisms were grown for 24 hours in Trypticase Soy broth at 35° C. Each culture was then diluted 1,000-fold in Trypticase Soy broth and then serial 10-fold dilutions were made in more Trypticase Soy broth until the test aliquot contained no more microbial cells.
(§4) The resultant dilutions ranged from 10^−3 to 10^−13.
(§5) Fifty microliters of each dilution plus 50 μl of Trypticase Soy broth were added to wells of a microtiter plate with or without 7-nitrocoumarin-3-carboxylic acid.
(§6) The plates were read (T zero) and then incubated at 35° C. before being read again after 24 hours. Two different readings were made at each time point:
(§7) of the fluorescence (excitation at 365 nm and emission at 440 nm), using a Biolite F1 2001 fluorometer (Labtech International Limited), for wells containing 7-nitrocoumarin-3-carboxylic acid.

[2] = tested on: Staphylococcus aureus (NCTC 6571)
Description: as §1, §2, §3, §4, §5, §6, §7

[3] = tested on: Pseudomonas fluorescens (ATCC 13525)
Description: as §1, §2, §3, §4, §5, §6, §7

[4] = tested on: Pseudomonas putida (ATCC 12633)
Description: as §1, §2, §3, §4, §5, §6, §7

[5] = tested on: Shewanella putrefaciens (ATCC 8071)
Description: as §1, §2, §3, §4, §5, §6, §7

[6] = tested on: Acinetobacter baumanii (ATCC 19606)
Description: as §1, §2, §3, §4, §5, §6, §7

[7] = tested on: Moraxella osloensis (ATCC 19976)
Description: as §1, §2, §3, §4, §5, §6, §7

[8] = tested on: Moraxella nonliquefaciens (ATCC 19975)
Description: as §1, §2, §3, §4, §5, §6, §7

[9] = tested on: Streptococcus mitis (NCTC 12261)
Description: as §1, §2, §3, §4, §5, §6, §7

[10] = tested on: Acinetobacter calcoaceticus (ATCC 7844)
Description: as §1, §2, §3, §4, §5, §6, §7

[11] = tested on: Serratia marcescens (NCTC 10211)
Description: as §1, §2, §3, §4, §5, §6, §7

O=C(O)c1cc2ccc([N+](=O)[O-])cc2oc1=O [7-nitrocoumarin-3-carboxylic acid]
Fluorescence reading ([1]; dilution 10^−3): 16246
Fluorescence reading ([1]; dilution 10^−4): 44910
Fluorescence reading ([1]; dilution 10^−5): 13185
Fluorescence reading ([1]; dilution 10^−6): 44865
Fluorescence reading ([1]; dilution 10^−7): 9251
Fluorescence reading ([1]; dilution 10^−8): 8137
Fluorescence reading ([1]; dilution 10^−9): 44425
Fluorescence reading ([1]; dilution 10^−10): 1663
Fluorescence reading ([1]; dilution 10^−11): 1651
Fluorescence reading ([1]; dilution 10^−12): 1691
Fluorescence reading ([1]; dilution 10^−13): 1682
Fluorescence reading ([2]; dilution 10^−3): 46607
Fluorescence reading ([2]; dilution 10^−4): 45207
Fluorescence reading ([2]; dilution 10^−5): 44544
Fluorescence reading ([2]; dilution 10^−6): 43559
Fluorescence reading ([2]; dilution 10^−7): 41437
Fluorescence reading ([2]; dilution 10^−8): 1678
Fluorescence reading ([2]; dilution 10^−9): 1666
Fluorescence reading ([2]; dilution 10^−10): 1666
Fluorescence reading ([2]; dilution 10^−11): 1620
Fluorescence reading ([2]; dilution 10^−12): 1706
Fluorescence reading ([2]; dilution 10^−13): 1669
Fluorescence reading ([3]; dilution 10^−3): 8985
Fluorescence reading ([3]; dilution 10^−4): 1774
Fluorescence reading ([3]; dilution 10^−5): 1657
Fluorescence reading ([3]; dilution 10^−6): 1625
Fluorescence reading ([3]; dilution 10^−7): 1716
Fluorescence reading ([3]; dilution 10^−8): 1690
Fluorescence reading ([3]; dilution 10^−9): 1736
Fluorescence reading ([3]; dilution 10^−10): 1666
Fluorescence reading ([3]; dilution 10^−11): 1691
Fluorescence reading ([3]; dilution 10^−12): 1666
Fluorescence reading ([3]; dilution 10^−13): 1624
Fluorescence reading ([4]; dilution 10^−3): 12589
Fluorescence reading ([4]; dilution 10^−4): 9810
Fluorescence reading ([4]; dilution 10^−5): 7670
Fluorescence reading ([4]; dilution 10^−6): 6806
Fluorescence reading ([4]; dilution 10^−7): 5714
Fluorescence reading ([4]; dilution 10^−8): 1715
Fluorescence reading ([4]; dilution 10^−9): 1664
Fluorescence reading ([4]; dilution 10^−10): 1660
Fluorescence reading ([4]; dilution 10^−11): 1651
Fluorescence reading ([4]; dilution 10^−12): 1660
Fluorescence reading ([4]; dilution 10^−13): 1657
Fluorescence reading ([5]; dilution 10^−3): 40277
Fluorescence reading ([5]; dilution 10^−4): 37262
Fluorescence reading ([5]; dilution 10^−5): 34890
Fluorescence reading ([5]; dilution 10^−6): 32034
Fluorescence reading ([5]; dilution 10^−7): 31793
Fluorescence reading ([5]; dilution 10^−8): 1911
Fluorescence reading ([5]; dilution 10^−9): 1902
Fluorescence reading ([5]; dilution 10^−10): 1972
Fluorescence reading ([5]; dilution 10^−11): 1917
Fluorescence reading ([5]; dilution 10^−12): 1935
Fluorescence reading ([5]; dilution 10^−13): 1990
Fluorescence reading ([6]; dilution 10^−3): 27016
Fluorescence reading ([6]; dilution 10^−4): 11695
Fluorescence reading ([6]; dilution 10^−5): 12525
Fluorescence reading ([6]; dilution 10^−6): 8912
Fluorescence reading ([6]; dilution 10^−7): 6953
Fluorescence reading ([6]; dilution 10^−8): 1651
Fluorescence reading ([6]; dilution 10^−9): 1705
Fluorescence reading ([6]; dilution 10^−10): 1718
Fluorescence reading ([6]; dilution 10^−11): 1678
Fluorescence reading ([6]; dilution 10^−12): 1687
Fluorescence reading ([6]; dilution 10^−13): 1660
Fluorescence reading ([7]; dilution 10^−3): 11426
Fluorescence reading ([7]; dilution 10^−4): 9949
Fluorescence reading ([7]; dilution 10^−5): 7700
Fluorescence reading ([7]; dilution 10^−6): 5875
Fluorescence reading ([7]; dilution 10^−7): 1925
Fluorescence reading ([7]; dilution 10^−8): 1941
Fluorescence reading ([7]; dilution 10^−9): 1977
Fluorescence reading ([7]; dilution 10^−10): 2039
Fluorescence reading ([7]; dilution 10^−11): 1938
Fluorescence reading ([7]; dilution 10^−12): 1907
Fluorescence reading ([7]; dilution 10^−13): 1945
Fluorescence reading ([8]; dilution 10^−3): 28160
Fluorescence reading ([8]; dilution 10^−4): 27889
Fluorescence reading ([8]; dilution 10^−5): 28439
Fluorescence reading ([8]; dilution 10^−6): 27648
Fluorescence reading ([8]; dilution 10^−7): 27385
Fluorescence reading ([8]; dilution 10^−8): 27196
Fluorescence reading ([8]; dilution 10^−9): 1974
Fluorescence reading ([8]; dilution 10^−10): 2057
Fluorescence reading ([8]; dilution 10^−11): 2002
Fluorescence reading ([8]; dilution 10^−12): 1956
Fluorescence reading ([8]; dilution 10^−13): 1907
Fluorescence reading ([9]; dilution 10^−3): 20988
Fluorescence reading ([9]; dilution 10^−4): 21541
Fluorescence reading ([9]; dilution 10^−5): 19899
Fluorescence reading ([9]; dilution 10^−6): 19619
Fluorescence reading ([9]; dilution 10^−7): 17228
Fluorescence reading ([9]; dilution 10^−8): 1682
Fluorescence reading ([9]; dilution 10^−9): 1676
Fluorescence reading ([9]; dilution 10^−10): 1691
Fluorescence reading ([9]; dilution 10^−11): 1636
Fluorescence reading ([9]; dilution 10^−12): 1644
Fluorescence reading ([9]; dilution 10^−13): 1669
Fluorescence reading ([10]; dilution 10^−3): 29657
Fluorescence reading ([10]; dilution 10^−4): 18288
Fluorescence reading ([10]; dilution 10^−5): 12311
Fluorescence reading ([10]; dilution 10^−6): 12223
Fluorescence reading ([10]; dilution 10^−7): 11635
Fluorescence reading ([10]; dilution 10^−8): 14858
Fluorescence reading ([10]; dilution 10^−9): 13353
Fluorescence reading ([10]; dilution 10^−10): 10862
Fluorescence reading ([10]; dilution 10^−11): 1712
Fluorescence reading ([10]; dilution 10^−12): 1654
Fluorescence reading ([10]; dilution 10^−13): 1699
Fluorescence reading ([11]; dilution 10^−3): 47178
Fluorescence reading ([11]; dilution 10^−4): 49470
Fluorescence reading ([11]; dilution 10^−5): 45804
Fluorescence reading ([11]; dilution 10^−6): 45454
Fluorescence reading ([11]; dilution 10^−7): 45637
Fluorescence reading ([11]; dilution 10^−8): 43088
Fluorescence reading ([11]; dilution 10^−9): 48320
Fluorescence reading ([11]; dilution 10^−10): 1678
Fluorescence reading ([11]; dilution 10^−11): 1641
Fluorescence reading ([11]; dilution 10^−12): 1636
Fluorescence reading ([11]; dilution 10^−13): 1621
